Consider 38 compounds from patent publication US7968573B2, “Hydrazide compound and pesticidal use of the same” (Sumitomo Chemical Company, Limited, priority 2008, dated 2011).

Where only a bound is given, the exact number is not on record here.

The test system of one assay is Frankliniella occidentalis. The assay can be described thus: Test Example 5: sprayed cucumber leaf, larvae of Frankliniella occidentalis. It is filed as in vivo. The conditions noted are these: 168 h; 500 ppm spray solution, 20 ml/cup on cucumber, cut first true leaf; 20 larvae of Frankliniella occidentalis; counted seven days after spraying; read-out: Controlling value. Here is the method: At the same time, cucumber was planted in a polyethylene cup, and was grown until the first true leaf was developed. The test spray solution as described above was sprayed in an amount of 20 ml/cup on the cucumber. After the drug solution sprayed on the cucumber was dried, the first true leaf was cut and then placed on a filter paper (diameter: 70 mm) containing water in a polyethylene cup (diameter: 110 mm). On the cucumber leaf, 20 larvae of Frankliniella occidentalis were released, and the polyethylene cup was capped. Seven days after spraying, the number of insects surviving on the cucumber leaf was counted, and a controlling value was calculated by the following equation: Controlling value(%)={1−(Cb×Tai)/(Cai×Tb)}×100 wherein, Cb: the number of insects in a non-treated section before treatment Cai: the number of insects in a non-treated section on observation Tb: the number of insects in a treated-section before treatment Tai: the number of insects in a treated-section on observation.
Take `Cc1cc(Cl)cc(C(=O)NNC=O)c1NC(=O)c1cc(C(F)(F)F)nn1-c1ncccc1Cl` [(17)]: the pest or weed control at 500 ppm was at least 90%.
Regarding `CC(=O)NNC(=O)c1cc(Cl)cc(C)c1NC(=O)c1cc(C(F)(F)F)nn1-c1ncccc1Cl` [(27)], the pest or weed control at 500 ppm was at least 90%.
In the case of `CSC(=O)NNC(=O)c1cc(Cl)cc(C)c1NC(=O)c1cc(C(F)(F)F)nn1-c1ncccc1Cl` [(29)], the pest or weed control at 500 ppm was at least 90%.
As to `COC(=O)NNC(=O)c1cc(Cl)cc(I)c1NC(=O)c1cc(Br)nn1-c1ncccc1Cl` [(79)], the pest or weed control at 500 ppm was at least 90%.
Consider `COC(=O)NNC(=O)c1cccc(C(F)(F)F)c1NC(=O)c1cc(Br)nn1-c1ncccc1Cl` [(81)], for which the pest or weed control at 500 ppm is at least 90%.
`COC(=O)NNC(=O)c1ccc(Cl)c(C)c1NC(=O)c1cc(Br)nn1-c1ncccc1Cl` [(85)]: the pest or weed control at 500 ppm was at least 90%.
Regarding `COC(=O)NNC(=O)c1c(Cl)ccc(C)c1NC(=O)c1cc(Br)nn1-c1ncccc1Cl` [(88)], the pest or weed control at 500 ppm was at least 90%.
Regarding `COC(=O)NNC(=O)c1cc(Cl)cc(C)c1NC(=O)c1cc(SC)nn1-c1ncccc1Cl` [(99)], the pest or weed control at 500 ppm was at least 90%.
Regarding `COC(=O)NNC(=O)c1cc2ccccc2c(Br)c1NC(=O)c1cc(Br)nn1-c1ncccc1Cl` [(140)], the pest or weed control at 500 ppm is at least 90%.
For the compound `COC(=O)N(NC(=O)c1cc(Cl)cc(C)c1NC(=O)c1cc(Cl)cn1-c1ncccc1Cl)C(=O)OC` [(159)], the pest or weed control at 500 ppm was at least 90%.
On to `COC(=O)N(NC(=O)c1cc(Cl)cc(C)c1NC(=O)c1cc(Cl)c(Cl)n1-c1ncccc1Cl)C(=O)OC` [(167)], for which the pest or weed control at 500 ppm was at least 90%.
On to `COC(=O)NNC(=O)c1cc([N+](=O)[O-])cc(C)c1NC(=O)c1cc(Br)nn1-c1ncccc1Cl` [(183)], for which the pest or weed control at 500 ppm was at least 90%.
Regarding `COC(=O)NNC(=O)c1cc(Cl)cc(C)c1NC(=O)c1cc(Br)cn1-c1ccncc1Cl` [(187)], the pest or weed control at 500 ppm is at least 90%.
On to `CN(C)C(=O)NN(C)C(=O)c1cc(Br)cc(Br)c1NC(=O)c1cc(Br)cn1-c1ncccc1Cl` [(206)], for which the pest or weed control at 500 ppm is at least 90%.
For `COC(=O)NNC(=O)c1cc(Br)cc(Br)c1NC(=O)c1ccc(S(C)(=O)=O)n1-c1ncccc1Cl` [(226)], the pest or weed control at 500 ppm was at least 90%.
The same measure, in the same setting: then `COC(=O)NNC(=O)c1cc(Br)cc(Br)c1NC(=O)c1ccc(SC)n1-c1ncccc1Cl` [(227)], with at least 90%; and `COC(=O)N(C)N(C)C(=O)c1cc(Cl)cc(Cl)c1NC(=O)c1cc(Br)nn1-c1ncccc1Cl` [(231)], with at least 90%.

The subject of the next assay is silver leaf whitefly. The assay can be described thus: Test Example 6: spray on cabbage with hatched larvae of silver leaf whitefly. The conditions noted are these: Bemisia argentifolii, 168 h; 500 ppm spray solution, 20 ml/cup on cabbage with hatched larvae of silver leaf whitefly; counted seven days after spraying; read-out: Controlling value. Type of assay: in vivo. On the procedure:
At the same time, cabbage was planted in a polyethylene cup, and grown until the first true leaf was developed. All leaves excluding the first true leaf were cut off. On the first true leaf, imagoes of silver leaf whitefly were released and allowed to lay eggs for about 24 hours. The cabbage was retained in a greenhouse for 8 days. When larvae hatched from the laid eggs, the test spray solution as described above was sprayed in an amount of 20 ml/cup to the cabbage. Seven days after spraying, the number of larvae surviving on the cabbage was counted, and a controlling value was calculated by the following equation: Controlling value(%)={1−(Cb×Tai)/(Cai×Tb)}×100 wherein, Cb: the number of worms in a non-treated section before treatment Cai: the number of worms in a non-treated section on observation Tb: the number of worms in a treated-section before treatment Tai: the number of worms in a treated-section on observation.
Turning to `COC(=O)NNC(=O)c1cc(Cl)cc(C)c1NC(=O)c1cc(C(F)(F)F)nn1-c1ncccc1Cl` [(5)], the pest or weed control at 500 ppm is at least 90%.
On the same count and under the same terms, the value for `CCOC(=O)NNC(=O)c1cccc(C)c1NC(=O)c1cc(C(F)(F)F)nn1-c1ncccc1Cl` [(32)] was at least 90%; that for `COC(=O)NNC(=O)c1cc(Cl)cc(C)c1NC(=O)c1cc(Br)nn1-c1ncccc1Cl` [(34)] was at least 90%; that for `COC(=O)NNC(=O)c1cc(Cl)cc(Cl)c1NC(=O)c1cc(C(F)(F)F)nn1-c1ncccc1Cl` [(56)] was at least 90%.
In the case of `COC(=O)NNC(=O)c1cc(Cl)cc(Br)c1NC(=O)c1cc(C(F)(F)F)nn1-c1ncccc1Cl` [(59)], the pest or weed control at 500 ppm is at least 90%.
`COC(=O)NNC(=O)c1cc(Cl)cc(C)c1NC(=O)c1cc(Br)cn1-c1ncccc1Cl` [(93)]: the pest or weed control at 500 ppm is at least 90%.
On to `COC(=O)N(NC(=O)c1cc(Cl)cc(Br)c1NC(=O)c1cc(Br)nn1-c1ncccc1Cl)C(=O)OC` [(107)], for which the pest or weed control at 500 ppm is at least 90%.
On the same count and under the same terms, then `COC(=O)N(C)NC(=O)c1cc(Cl)cc(C)c1NC(=O)c1cc(Br)nn1-c1ncccc1Cl` [(114)], with at least 90%; and `COC(=O)N(C)N(C)C(=O)c1cc(Cl)cc(C)c1NC(=O)c1cc(Br)nn1-c1ncccc1Cl` [(119)], with at least 90%.
In the case of `COC(=O)NNC(=O)c1cc(Cl)cc(C)c1NC(=O)c1cc(Br)c(Br)n1-c1ncccc1Cl` [(127)], the pest or weed control at 500 ppm was at least 90%.
As for `COC(=O)NNC(=O)c1cc(Cl)cc(C)c1NC(=O)c1ccc(Cl)n1-c1ncccc1Cl` [(129)], the pest or weed control at 500 ppm is at least 90%.
As to `COC(=O)N(C)N(C)C(=O)c1cc(C#N)cc(C)c1NC(=O)c1cc(Br)nn1-c1ncccc1Cl` [(144)], the pest or weed control at 500 ppm was at least 90%.
In the case of `COC(=O)NNC(=O)c1cc(Cl)cc(C)c1NC(=O)c1cc(Cl)cn1-c1ncccc1Cl` [(153)], the pest or weed control at 500 ppm was at least 90%.
`COC(=O)N(NC(=O)c1cc(Cl)cc(C)c1NC(=O)c1cc(Br)cn1-c1ncccc1Cl)C(=O)OC` [(158)]: the pest or weed control at 500 ppm is at least 90%.
As for `COC(=O)N(NC(=O)c1cc(Br)cc(Br)c1NC(=O)c1cc(Br)cn1-c1ncccc1Cl)C(=O)OC` [(201)], the pest or weed control at 500 ppm is at least 90%.
Regarding `COC(=O)N(C)N(C)C(=O)c1cc(Br)cc(Br)c1NC(=O)c1cc(Br)nn1-c1ncccc1Cl` [(204)], the pest or weed control at 500 ppm was at least 90%.
As to `COC(=O)N(C)NC(=O)c1cc(Br)cc(Br)c1NC(=O)c1cc(Br)cn1-c1ncccc1Cl` [(209)], the pest or weed control at 500 ppm is at least 90%.
On to `COCCOC(=O)N(NC(=O)c1cc(Cl)cc(C)c1NC(=O)c1cc(Br)nn1-c1ncccc1Cl)C(=O)OC` [(215)], for which the pest or weed control at 500 ppm was at least 90%.
For `Cc1cc(Cl)cc(C(=O)NNC(=O)OCCF)c1NC(=O)c1cc(Br)nn1-c1ncccc1Cl` [(221)], the pest or weed control at 500 ppm is at least 90%.
In the case of `C#CCOC(=O)NNC(=O)c1cc(Br)cc(Br)c1NC(=O)c1cc(Br)cn1-c1ncccc1Cl` [(223)], the pest or weed control at 500 ppm is at least 90%.
For `COC(=O)NNC(=O)c1cc(Br)cc(Br)c1NC(=O)c1ccc(S(C)(=O)=O)n1-c1ncccc1Cl` [(226)], the pest or weed control at 500 ppm was at least 90%.
Same read-out and setting: the value for `COC(=O)N(C)N(C)C(=O)c1cc(Cl)cc(Cl)c1NC(=O)c1cc(Br)nn1-c1ncccc1Cl` [(231)] was at least 90%.

The next assay deals with cotton aphids. Nature of the assay: Test Example 2: spray on cucumber infested with cotton aphids. Type of assay: in vivo, Aphis gossypii. As to conditions: 500 ppm spray solution, 20 ml/cup on cucumber with about 30 cotton aphids; counted six days after spraying. On the procedure: At the same time, cucumber was planted in a polyethylene cup, and was grown until the first true leaf was developed. About 30 cotton aphids were put on the cucumber. One day after, the test spray solution as described above was sprayed in an amount of 20 ml/cup on the cucumber. Six days after spraying, the number of cotton aphids was counted, and a controlling value was calculated by the following equation: Controlling value(%)={1−(Cb×Tai)/(Cai×Tb)}×100 wherein, Cb: the number of insects in a non-treated section before treatment Cai: the number of insects in a non-treated section on observation Tb: the number of insects in a treated-section before treatment Tai: the number of insects in a treated-section on observation. Furthermore, the same way as Test Example 2, test spray solution of the comparative compound of the formula: […]
Turning to `COC(=O)CNC(=O)c1cccc(C)c1NC(=O)c1cc(C(F)(F)F)nn1-c1ncccc1Cl`, the Controlling value entry is “less than 30%”.
